Broadly, the Ki is the equilibrium dissociation constant of an inhibitor or competing ligand from its target. A lower Ki goes with a stronger hold on the target.

This assay has as its target T1, Neutrophil elastase (Homo sapiens, UniProt P08246).
T1 sequence (P08246 whole entry): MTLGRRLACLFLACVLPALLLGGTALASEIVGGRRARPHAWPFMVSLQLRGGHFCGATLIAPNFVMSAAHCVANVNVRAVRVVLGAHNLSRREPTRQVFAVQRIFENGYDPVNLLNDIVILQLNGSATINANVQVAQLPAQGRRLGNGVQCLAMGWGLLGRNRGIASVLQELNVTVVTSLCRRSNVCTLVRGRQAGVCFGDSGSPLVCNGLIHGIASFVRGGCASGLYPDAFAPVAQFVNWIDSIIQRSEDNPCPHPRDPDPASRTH
The assay can be described thus: Enzyme Assay. The following applies: 25 °C. Here is the method: The enzyme were assayed spectrophotometrically at 410nm with p-nitroanilide substrates at 25 C.
`CCc1nn(C)c2c1NOC(=O)N2` [Pyrazolooxadiazinone, 2j] came in with an inhibition constant (Ki) of 199 µM.
Compound `Cc1nn(-c2ccccc2)c2c1NOC(=O)N2` [Pyrazolooxadiazinone, 2a] yielded a Ki of 94 µM.
The compound `CCCCc1nn(C)c2c1NOC(=O)N2` [Pyrazolooxadiazinone, 2l] had a Ki of 113 µM.
`Cc1nn(-c2ccc(Cl)cc2)c2c1NOC(=O)N2` [Pyrazolooxadiazinone, 2c]: the Ki was found to be 87 µM.
In the case of `Cc1nn(-c2cccc([N+](=O)[O-])c2)c2c1NOC(=O)N2` [Pyrazolooxadiazinone, 2h], the Ki was above 8400 µM.
`Cc1nn(-c2ccccc2[N+](=O)[O-])c2c1NOC(=O)N2` [Pyrazolooxadiazinone, 2g] showed a Ki above 8400 µM.
For the compound `Cc1nn(C)c2c1NOC(=O)N2` [Pyrazolooxadiazinone, 2b], the Ki was determined as 207 µM.
